Structures can show the parent of a compound that is named as a salt.

For assay [1], the system named is pulmonary arterial pressure (PAP). Description: Pulmonary arterial pressure lowering activity on anesthetized thoracotomized dog by intravenous administration. Particulars: relative ratio to activity of sodium 1-[chloro-4-(3,4-methylenedioxybenzyl)aminoquinazolin-2-yl]piperidine-4-carboxylate. In kind it is in vivo. Here is the method:
Male and female hybrid dogs having a weight of about 10 kg were operated under enflurane anesthesia with N2 O/O2 as carrier. Each dog was thoracotomized in the left fourth intercostal space and a pressure transducer (MPC-500 mfd. by Miller) was inserted into the pulmonary artery to determine the pulmonary arterial pressure (PAP). This experiment was conducted with the mean PAP (mPAP) increased by about 10 mmHg by lowering the pressure of oxygen fed by about 40% of the normal one. Each compound according to the present invention was dissolved in Polyethylene glycol 400 (a product of Wako Pure Chemical Industries, Ltd.) in a concentration of 1 mg/ml and, if necessary, further diluted with Polyethylene glycol 400. The resulting solution was intravenously administered to the dog through a polyethylene catheter indwelling in the femoral vein.

Assay [2] deals with T1, cGMP-PDE (Sus scrofa, UniProt A0A287B475).
T1 construct: Swine lung was minched, followed by the addition of five times (by volume) as much buffer A; from tissue; host or cells: swine lung
Description: Inhibitory activity against cGMP-PDE prepared from swine lung. In kind it is biochemical. To be noted: 1 mM EGTA, 1 mM cGMP as substrate, DMSO 5% or below. As for the experimental part: The enzyme activity of the cGMP-PDE prepared from swine lung was determined according to the method of Thompson et al. This determination was conducted in the presence of 1 mM EGTA by the use of 1 mM cGMP as substrate. Each compound according to the present invention was dissolved in DMSO and thereafter added to the reaction system to determine the inhibitory activity of the compound. The final concentration of DMSO in the reaction solution was controlled to 5% or below.
The preparation of cGMP-PDE was conducted as follows.
Swine lung was minched, followed by the addition of five times (by volume) as much buffer A (comprising Tris/HCl (20 mM), Mg acetate (2 mM), 2-mercaptoethanol (10 mM), EGTA (0.1 mM) and PMSF (0.2 mM) and adjusted to pH7.4). The resulting mixture was homogenized and centrifuged at 1000×g for 5 minutes. Ammonium sulfate was added to the obtained supernatant and the resulting mixture was centrifuged at 20000×g for 45 minutes to collect a fraction precipitating between 30 and 40% saturation with ammonium sulfate. This fraction was dialyzed against buffer A and passed through a column of DEAE-Toyopearl 650S (a product of Tosoh, Tokyo, Japan). The column was washed with buffer A and subjected to gradient elution with 0.05 to 0.2 M NaClibuffer A to collect a cGMP-PDE fraction.
This cGMP-PDE fraction was passed through Blue-Sepharose CL-6B (a product of Pharmacia, Uppsala, Sweden). The resulting column was washed with buffer A containing cAMP (10 mM) and NaCl (0.5 M) and eluted with buffer A containing cGMP (10 mM) and NaCl (0.5 M). The obtained fraction was dialyzed, concentrated and stored.

Regarding `COc1ccc(CNc2nnc(Cl)c3ccc([N+](=O)[O-])cc23)cc1Cl` [Example 49, 1-Chloro-4-(3-chloro-4-methoxybenzyl)amino-6-nitrophthalazine], the PAP lowering activity in assay [1] is recorded as 1. Further, the midpoint of inhibition in assay [2], the IC50, lay at 1.88 nM.

Consider `COc1ccc(CNc2nnc(N3CCC(C(=O)O)CC3)c3ccc([N+](=O)[O-])cc23)cc1Cl.Cl` [Example 56, 1-(4-Carboxypiperidino)-4-(3-chloro-4-methoxybenzyl)amino-6-nitrophthalazine hydrochloride], for which, in assay [1], the PAP lowering activity was not below 1. In assay [2], this compound had an IC50 of 12.6 nM.

As for `Cl.N#Cc1ccc2c(N3CCC(O)CC3)nnc(NCc3ccc4c(c3)OCO4)c2c1` [Example 26, 6-Cyano-1-(4-hydroxypiperidino)-4-(3,4-methylenedioxy-benzyl)aminophthalazine hydrochloride], the PAP lowering activity in assay [1] is listed as 1. Further, 4 nM corresponded to half-maximal inhibition in assay [2] (IC50).

Consider `COc1ccc(CNc2nnc(N3CCC(CO)CC3)c3ccc([N+](=O)[O-])cc23)cc1Cl.Cl` [Example 52, 4-(3-Chloro-4-methoxybenzyl)amino-1-[4-(hydroxymethyl)piperidino]-6-nitrophthalazine hydrochloride], for which the PAP lowering activity in assay [1] came to 10. Also, the IC50 in assay [2] was 0.1 nM.

In the case of `COc1ccc(CNc2nnc(N3CCC(=O)CC3)c3ccc(C#N)cc23)cc1Cl.Cl` [Example 19, 4-(3-Chloro-4-methoxybenzyl)amino-6-cyano-1-(4-oxopiperidino)phthalazine hydrochloride], the PAP lowering activity in assay [1] is reported as 3-10. The IC50 in assay [2] was found to be 0.53 nM.

Regarding `COc1ccc(CNc2nn(CCCO)c(=O)c3ccc(C#N)cc23)cc1Cl` [Example 25, 4-(3-Chloro-4-methoxybenzyl)amino-6-cyano-2-(3-hydroxypropyl)-1(2H)-phthalazinone], the PAP lowering activity in assay [1] is recorded as 3. For the same compound, in assay [2], the IC50 stood at 1.41 nM.

Take `COc1ccc(CNc2nnc(NCCCO)c3ccc(C#N)cc23)cc1Cl` [Example 7, 4-(3-Chloro-4-methoxybenzyl)amino-6-cyano-1-(3-hydroxypropyl)aminophthalazine]: the PAP lowering activity in assay [1] is reported as 1. Besides, 1.2 nM corresponded to half-maximal inhibition in assay [2] (IC50).

On to `COc1ccc(CNc2nnc(N3CCC(CCO)CC3)c3ccc(C#N)cc23)cc1Cl.Cl` [Example 8, 4-(3-Chloro-4-methoxybenzyl)amino-6-cyano-1-[4-(2-hydroxyethyl)piperidino]phthalazine hydrochloride], for which the PAP lowering activity in assay [1] is recorded as 10. For the same compound, half-maximal inhibition in assay [2] (IC50) was put at 0.03 nM.

With `COc1ccc(CNc2nnc(N(C)CCCC(=O)O)c3ccc(Cl)cc23)cc1Cl` [Example 44], in assay [1], the PAP lowering activity is reported as not above 0.33. Inhibition in assay [2] was half-maximal at 2.1 nM (IC50).

In the case of `COc1ccc(CNc2nnc(N3CCC(C(=O)O)CC3)c3ccc(Cl)cc23)cc1Cl` [Example 43, 1-(4-Carboxypiperidino)-6-chloro-4-(3-chloro-4-methoxybenzyl)aminophthalazine], in assay [1], the PAP lowering activity is 1. In assay [2], this compound registered an IC50 of 0.37 nM.

As for `COc1ccc(CNc2nnc(N3CCC(C(=O)O)CC3)c3ccc(C#N)cc23)cc1Cl` [Example 20, 1-(4-Carboxypiperidino)-4-(3-chloro-4-methoxybenzyl)-amino-6-cyanophthalazine hydrochloride], in assay [1], the PAP lowering activity was 0.3-1. Besides, in assay [2], the IC50 was 0.12 nM.

In assay [2], `COc1ccc(CNc2nnc(NCc3ccccn3)c3ccc(C#N)cc23)cc1Cl` [Example 11, 4-(3-Chloro-4-methoxybenzyl)amino-6-cyano-1-(2-pyridylmethyl)aminophthalazine dihydrochloride] came in with an IC50 of 0.11 nM.

For `COc1ccc(CNc2nnc(N3CCC(O)CC3)c3ccc([N+](=O)[O-])cc23)cc1Cl` [Example 51, 4-(3-Chloro-4-methoxybenzyl)amino-1-(4-hydroxy-piperidino)-6-nitrophthalazine hydrochloride], the IC50 in assay [2] turned out to be 0.052 nM.

As for `COc1ccc(CNc2nnc(N3CCC(O)CC3)c3ccc(Cl)cc23)cc1Cl.Cl` [Example 32, 6-Chloro-4-(3-chloro-4-methoxybenzyl)amino-1-(4-hydroxypiperidino)phthalazine hydrochloride], in assay [1], the PAP lowering activity is 1. For the same compound, the IC50 in assay [2] stood at 4.4 nM.

Consider `COc1ccc(CNc2nnc(N3CCC(O)CC3)c3ccc(C#N)cc23)cc1Cl` [Example 4, 4-(3-Chloro-4-methoxybenzyl)amino-6-cyano-1-(4-hydroxypiperidino)phthalazine hydrochloride], for which the IC50 in assay [2] worked out at 0.18 nM.

For `COc1ccc(CNc2nnc(N3CCC(C)(O)CC3)c3ccc(C#N)cc23)cc1Cl.Cl` [Example 9, 4-(3-Chloro-4-methoxybenzyl)amino-6-cyano-1-(4-hydroxy-4-methylpiperidino)phthalazine hydrochloride], the PAP lowering activity in assay [1] is 10. Moreover, the IC50 in assay [2] was determined as 0.7 nM.

As for `COc1ccc(CNc2nnc(N3CCC(CO)CC3)c3ccc(C#N)cc23)cc1Cl.Cl` [Example 6, 4-(3-Chloro-4-methoxybenzyl)amino-6-cyano-1-[4-(hydroxymethyl)piperidino]phthalazine hydrochloride], the PAP lowering activity in assay [1] is listed as 10. Moreover, in assay [2], the IC50 turned out to be 0.015 nM.

Take `O=[N+]([O-])c1ccc2c(-n3ccnc3)nnc(NCc3ccc4c(c3)OCO4)c2c1` [Example 60, 1-(Imidazol-1-yl)-4-(3,4-methylenedioxybenzyl)amino-6-nitrophthalazine]: in assay [1], the PAP lowering activity came to 1. For the same compound, the IC50 in assay [2] worked out at 20.4 nM.

As to `COc1ccc(CNc2nnc(N3CCC(CCO)CC3)c3ccc(Cl)cc23)cc1Cl` [Example 37, 6-Chloro-4-(3-chloro-4-methoxybenzyl)amino-1-[4-(2-hydroxyethyl)piperidino]phthalazine], in assay [1], the PAP lowering activity is not above 0.33. The compound also gave an IC50 in assay [2] of 1.8 nM.

In the case of `COc1ccc(CNc2nnc(N3CCC(CO)CC3)c3ccc(Cl)cc23)cc1Cl` [Example 36, 6-Chloro-4-(3-chloro-4-methoxybenzyl)amino-1-[4-(hydroxymethyl)piperidino]phthalazine], the PAP lowering activity in assay [1] is on record as not below 1. The compound further gave an IC50 in assay [2] of 1.9 nM.

As for `COc1ccc(CNc2nnc(N3CCC(CCO)CC3)c3ccc([N+](=O)[O-])cc23)cc1Cl.Cl` [Example 53, 4-(3-Chloro-4-methoxybenzyl)amino-1-[4-(2-hydroxyethyl)piperidino]-6-nitrophthalazine hydrochloride], the PAP lowering activity in assay [1] was 10. Also, in assay [2], half-maximal inhibition (IC50) required 0.23 nM.

As for `CCOC(=O)C1CCN(c2nnc(NCc3ccc(OC)c(Cl)c3)c3cc([N+](=O)[O-])ccc23)CC1` [Example 55, 1-(4-Ethoxycarbonylpiperidino)-4-(3-chloro-4-methoxybenzyl)amino-6-nitrophthalazine], the PAP lowering activity in assay [1] is not below 1. This compound gave an IC50 in assay [2] of 4.59 nM.

Consider `COc1ccc(CNc2nnc(N3CCCC(O)C3)c3ccc(C#N)cc23)cc1Cl.Cl` (stereo not drawn) [Example 10, 4-(3-Chloro-4-methoxybenzyl)amino-6-cyano-1-(3-hydroxypiperidino)phthalazine hydrochloride], for which the PAP lowering activity in assay [1] turned out to be 10.

As for `COc1ccc(CNc2nnc(N3CCC(C(=O)O)CC3)c3cc(Cl)c(Cl)cc23)cc1Cl` [Example 67, 1-(4-Carboxypiperidino)-4-(3-chloro-4-methoxybenzyl)amino-6,7-dichlorophthalazine], in assay [1], the PAP lowering activity stood at 0.33. In assay [2], this compound gave an IC50 of 0.32 nM.

With `COc1ccc(CNc2nnc(-n3ccnc3)c3ccc(Cl)cc23)cc1Cl` [Example 31, 6-Chloro-4-(3-chloro-4-methoxybenzyl)amino-1-(imidazol-1-yl)phthalazine], the PAP lowering activity in assay [1] was 1. Moreover, the IC50 in assay [2] is 3.74 nM.

Consider `COc1ccc(CNc2nnc(Cl)c3ccc(C#N)cc23)cc1Cl` [Example 1, 1-Chloro-4-(3-chloro-4-methoxybenzyl)amino-6-cyanophthalazine], for which, in assay [1], the PAP lowering activity is reported as not below 3. Further, in assay [2], the IC50 was found to be 1.7 nM.

As a reminder, the IC50 is the concentration that gives 50% inhibition. High values mean lower potency, low ones higher potency.

(Values after patent publication US6218392A, “Fused pyridazine compounds” (priority 1994, dated 2001).)
